Source: US12023348B2, “EGR1 targeting molecules for the treatment of inflammatory and hyperproliferative conditions” (The Medical Research, Infrastructure and Health Services …, priority 2015, dated 2024)

Legend:
SAMD9 promoter [1] = test: High-throughput luciferase reporter screen in HeLa line stably expressing 585 bp SAMD9 promoter fragment; assay type: cell-based, human; conditions: IFN-γ 10 ng/ml for 24 hours (FIG. 1B)
SAMD9 promoter [2] = test: Dual luciferase reporter assay in HeLa cells transiently transfected with SAMD9 promoter construct; assay type: cell-based, human; conditions: transient transfection, IFN-γ 10 ng/ml, 48 hours after transfection (FIG. 1A)
Description: SAMD9 promoter fragments cloned into pGL3 as previously described [Hershkovitz, D. et al. (2011) J Invest Dermatol 131: 662-9], were digested with KpnI and XhoI and subcloned into pGL4.17 [luc2/Neo] (Promega). The expression vector pGL4.17 encodes the luciferase reporter gene luc2 (Photinuspyralis) and contains a mammalian selectable marker for neomycin resistance. For transient transfection, SAMD9 promoter-luciferase constructs were transfected into HeLa cells using lipofectamine 2000 (Invitrogen, Carlsbad, CA) according to the manufacturer's instructions.
Cellular protein was extracted by adding 20 μl of Promega Lysis Buffer (PLB) (Promega) to each sample and incubated for a period of 15 minutes. Cell lysate was analyzed in a 96-well flat white plate (Greiner Bio-One, United Kingdom) where 100 μl of Luciferase Assay Reagent II (LAR II) (Promega) was added to each sample. Luminescence was ascertained using the Infinite M200 multimode microplate reader (Tecan Ltd, Minnedorf, Switzerland). After the initial reading, 100 μl of Stop & GloR Reagent (Promega) were dispensed into tested wells and Renilla luciferase levels were tested. The assay was completed after Luciferase levels were normalized to Renilla levels.
SAMD9 promoter activity was first analyzed using a luciferase reporter assay in HeLa cells. […]

IFN-γ: interferon-gamma, previously identified as a strong inducer of SAMD9 expression
Response of stable SAMD9 promoter-luciferase HeLa cell line (SAMD9 promoter [1]): respond robustly | SAMD9 promoter activity (luciferase) (SAMD9 promoter [2]): significantly induced
